Assay [1] has as its system MCF-7 cells. Briefly: WST-8 growth inhibition of cultured breast cancer cells. It is filed as cell-based, human. To be noted: for IC50: Homo sapiens, MCF7, 5-FU, doses ranged from 5-300 μg/ml. On the procedure: (§1) In another example, the expression of thymidylate synthase (TS) was correlated with the response of breast cancer cells to the chemotherapeutic drug 5-fluorouracil (5-FU). TS is a key enzyme in DNA biosynthesis and has been postulated to play a major role in predicting the response to 5-FU based chemotherapy. Experiments were conducted to examine this relationship. […] Doses ranged from 5-300 μg/ml.

In assay [2] the test system is SKBR-3 cells. The assay is described as above. It is filed as cell-based, human. To be noted: for IC50: Homo sapiens, SK-BR-3, 5-FU, doses ranged from 5-300 μg/ml. On the procedure:
as §1

Another assay has as its system MDA-MB231 cells. To be noted: MDA-MB 231 cells.
The subject of another assay is HCC 202 cells. Put plainly: WST-8 growth inhibition of cultured breast cancer cells. It is filed as cell-based, human. The note with it: for IC50: Homo sapiens. As for the experimental part: as §1
For orientation: Formazan colour is commonly taken as a measure of viable cells.

Another assay deals with HCC 2218 cells. The description is as above. The note with it: for IC50: Homo sapiens. It is filed as cell-based, human. On the procedure:
as §1

The next assay relates to HCC 38 cells. The description is as above. To be noted: for IC50: Homo sapiens. It is filed as cell-based, human. On the procedure: as §1
The next assay deals with T47D cells. The description is as above. It is filed as cell-based, human. To be noted: for IC50: Homo sapiens. On the procedure:
as §1

Assay [3] deals with SKBR-3 cells. The description is as above. It is filed as cell-based. The note with it: Homo sapiens, SK-BR-3, 72 hours post treatment.
For assay [4], the system named is MCF-7 cells. Described as above. It is filed as cell-based. The note with it: Homo sapiens, 72 hours post treatment.

Converted amounts (≈) assume the structure as drawn. Like-named read-outs stand apart in the source and are kept apart here.

Method for MDA-MB231 cells: For experimental conditions, cell suspensions containing 10^4 viable cells were plated into 96 well plates in 100 μl of media, and allowed to attach for 24 hours at 37° C. in a 5% CO2 atmosphere. After this incubation period, the cells were exposed to the drug at the designated doses, which were based on peak plasma concentration (PPC), as determined by published pharmacokinetic analyses. […] Media containing 0.5% FCS was then added to each well in order to maximize ER expression. Control wells contained 100 μl of the appropriate media and were treated identically to the test wells. At 72 hours post treatment, the plates were subjected to WST-8 analysis. WST-8 is a tetrazolium salt that is bioreduced by cellular dehydrogenases to yield a colored formazan product. The amount of the formazan product is directly proportional to the number of living cells. […] The absorbance of each well was measured at 460 nm using a Biotek microplate reader. For each concentration of drugs the mean absorbance±the SE was calculated. Results are expressed as % inhibition of growth compared with drug concentration. IC50 values will be determined using the median effect plot of (log fa/log fu) vs log C where fu=fraction unaffected, fa=fraction affected and C=drug concentration.

As for `CC/C(=C(\c1ccccc1)c1ccc(OCCN(C)C)cc1)c1ccccc1` [Tamoxifen, tamoxifen], the “biological response to drug treatment (in words)” value (“biological response” below) in the assay with MCF-7 cells [1] is given as “high sensitivity”; in the assay on SKBR-3 cells [2], “much less sensitive response”; in the assay with MDA-MB231 cells, “much less sensitive response”.
For the compound `CC(=O)O[C@H]1C(=O)[C@@]2(C)[C@H]([C@H](OC(=O)c3ccccc3)[C@]3(O)C[C@H](OC(=O)[C@H](O)[C@@H](NC(=O)c4ccccc4)c4ccccc4)C(C)=C1C3(C)C)[C@]1(OC(C)=O)CO[C@@H]1C[C@@H]2O` [Paclitaxel, paclitaxel], the “biological response” value was “resistant” in the assay on HCC 202 cells (HCC 202 cells); “displayed a response to PTX, but did not express an IC50 value” with HCC 2218 cells (HCC 2218 cells); “displayed a response to PTX, but did not express an IC50 value” with HCC 38 cells (HCC 38 cells); “sensitive” in the assay with MCF-7 cells [1]; “sensitive” with SKBR-3 cells [2]; “sensitive” with T47D cells. For the same compound, the IC50 in the assay on HCC 202 cells (HCC202, Paclitaxel, HCC 202 cells, 72 hours post treatment, read-out: IC50-1) was more than 50 µg/mL; in the assay with HCC 202 cells (HCC202, Paclitaxel, HCC 202 cells, 72 hours post treatment, read-out: IC50-2), more than 50 µg/mL; with HCC 2218 cells (Paclitaxel, HCC2218 cells, 72 hours post treatment, read-out: IC50-1) it was more than 50 µg/mL; in the assay on HCC 2218 cells (Paclitaxel, HCC2218 cells, 72 hours post treatment, read-out: IC50-2), more than 50 µg/mL; in the assay with HCC 38 cells (HCC38, Paclitaxel, HCC 38 cells, 72 hours post treatment, read-out: IC50-1) it was more than 50 µg/mL; in the assay on HCC 38 cells (HCC38, Paclitaxel, HCC 38 cells, 72 hours post treatment, read-out: IC50-2), more than 50 µg/mL. Moreover, the IC50 is 3 µg/mL (≈ 3.51 µM) in the assay with T47D cells (Paclitaxel, 72 hours post treatment, read-out: IC50-1); 3.6 µg/mL (≈ 4.22 µM) with T47D cells (Paclitaxel, 72 hours post treatment, read-out: IC50-2); 10 µg/mL (≈ 11.7 µM) in the assay on SKBR-3 cells [3] (Paclitaxel, SKBR-3 cells, read-out: IC50-1); 8.5 µg/mL (≈ 9.95 µM) with SKBR-3 cells [3] (Paclitaxel, SKBR-3 cells, read-out: IC50-2); 6 µg/mL (≈ 7.03 µM) in the assay on MCF-7 cells [4] (MCF7, Paclitaxel, read-out: IC50-1); 7.1 µg/mL (≈ 8.31 µM) in the assay on MCF-7 cells [4] (MCF7, Paclitaxel, read-out: IC50-2).
On to `CC(=O)O[C@@]12CO[C@@H]1C[C@H](O)[C@@]1(C)C(=O)[C@H](O)C3=C(C)[C@@H](OC(=O)[C@H](O)[C@@H](NC(=O)OC(C)(C)C)c4ccccc4)C[C@@](O)([C@@H](OC(=O)c4ccccc4)[C@H]21)C3(C)C` [Docetaxel, docetaxel], for which the “biological response” value is reported as “resistant” in the assay on HCC 202 cells (HCC 202 cells); “response only to higher doses” in the assay with HCC 2218 cells (HCC 2218 cells); “response only to higher doses” in the assay on HCC 38 cells (HCC 38 cells); “sensitive” with MCF-7 cells [1]; “sensitive” in the assay on SKBR-3 cells [2]; “sensitive” in the assay on T47D cells. Moreover, the IC50 in the assay on HCC 202 cells (Docetaxel, HCC202 cells, 72 hours post treatment, read-out: IC50-1) was 25.5 µg/mL (≈ 31.6 µM); in the assay with HCC 202 cells (Docetaxel, HCC202 cells, 72 hours post treatment, read-out: IC50-2), 22 µg/mL (≈ 27.2 µM); with HCC 2218 cells (HCC2218, Docetaxel, HCC 2218 cells, 72 hours post treatment, read-out: IC50-1), 25 µg/mL (≈ 30.9 µM); with HCC 2218 cells (HCC2218, Docetaxel, HCC 2218 cells, 72 hours post treatment, read-out: IC50-2), 18 µg/mL (≈ 22.3 µM); in the assay with HCC 38 cells (Docetaxel, HCC38 cells, 72 hours post treatment, read-out: IC50-1) it was 58 µg/mL (≈ 71.8 µM); with HCC 38 cells (Docetaxel, HCC38 cells, 72 hours post treatment, read-out: IC50-2) it was 59.9 µg/mL (≈ 74.1 µM). The IC50 turned out to be 5.5 µg/mL (≈ 6.81 µM) in the assay on T47D cells (Docetaxel, 72 hours post treatment, read-out: IC50-1); 4.5 µg/mL (≈ 5.57 µM) in the assay with T47D cells (Docetaxel, 72 hours post treatment, read-out: IC50-2); 6.6 µg/mL (≈ 8.17 µM) in the assay on SKBR-3 cells [3] (Docetaxel, SKBR3 cells, read-out: IC50-1); 12.5 µg/mL (≈ 15.5 µM) in the assay on SKBR-3 cells [3] (Docetaxel, SKBR3 cells, read-out: IC50-2); 1 µg/mL (≈ 1.24 µM) with MCF-7 cells [4] (MCF7, Docetaxel, read-out: IC50-1); 0.8 µg/mL (≈ 0.99 µM) with MCF-7 cells [4] (MCF7, Docetaxel, read-out: IC50-2).
Turning to `O=c1[nH]cc(F)c(=O)[nH]1` [5 Fluorouracil, 5-fluorouracil], the “biological response” value in the assay with HCC 202 cells (HCC 202 cells) is recorded as “responded only to higher doses”; in the assay on HCC 2218 cells (HCC 2218 cells) it was “responded only to higher doses”; with HCC 38 cells (HCC 38 cells), “responded only to higher doses”; with MCF-7 cells [1], “responding to lower doses”; in the assay on SKBR-3 cells [2] it was “responding to lower doses”; with T47D cells, “responding to lower doses”. In addition, the IC50 came out at 181 µg/mL (≈ 1390 µM) in the assay on HCC 202 cells (HCC202, 5-FU, HCC 202 cells, doses ranged from 5-300 μg/ml, read-out: IC50-1 FU); 162 µg/mL (≈ 1250 µM) in the assay with HCC 202 cells (HCC202, 5-FU, HCC 202 cells, doses ranged from 5-300 μg/ml, read-out: IC50-2 FU); 246 µg/mL (≈ 1890 µM) in the assay on HCC 2218 cells (HCC2218, 5-FU, HCC 2218 cells, doses ranged from 5-300 μg/ml, read-out: IC50-1 FU); 216 µg/mL (≈ 1660 µM) in the assay on HCC 38 cells (HCC38, 5-FU, HCC 38 cells, doses ranged from 5-300 μg/ml, read-out: IC50-1 FU); 10 µg/mL (≈ 76.9 µM) with MCF-7 cells [1] (read-out: IC50-1 FU); 15.2 µg/mL (≈ 117 µM) in the assay on MCF-7 cells [1] (read-out: IC50-2 FU). Further, the IC50 in the assay with SKBR-3 cells [2] (read-out: IC50-1 FU) stood at 23.3 µg/mL (≈ 179 µM); in the assay on SKBR-3 cells [2] (read-out: IC50-2 FU) it was 33.7 µg/mL (≈ 259 µM); in the assay on T47D cells (5-FU, doses ranged from 5-300 μg/ml, read-out: IC50-1 FU), 8.64 µg/mL (≈ 66.4 µM); in the assay with T47D cells (5-FU, doses ranged from 5-300 μg/ml, read-out: IC50-2 FU), 6.72 µg/mL (≈ 51.7 µM).

As usually defined, the IC50 is the point on the concentration scale where inhibition reaches its midpoint.

(Values after US20070071762A1, “COMPREHENSIVE DIAGNOSTIC TESTING PROCEDURES FOR PERSONALIZED ANTICANCER CHEMOTHERAPY (PAC)” (CCC Diagnostics, LLC, priority 2005, published 2007).)
